Measurements: patent US6673812B1, “Preventives/remedies for glaucoma” (Senju Pharmaceutical Co., Ltd., priority 1998, dated 2004)

Tested on: Japanese white rabbits
Assay: Ophthalmic disorder caused by 8-time-a-day instillation to white rabbits: macroscopic observation of anterior segment of the eye
Format: in vivo, rabbit
Design: scale not given here
Conditions: mean of three eyes
Method: The test drugs, Compound A and Compound C, were each dissolved in the following base at a concentration of 0.125, 0.25, 0.5 and 1.0% and adjusted to pH 7 for use in this experiment. [table] Japanese white rabbits (body weight about 2 kg) purchased from Japan Laboratory Animals, INC. were used. These animals were bred in a breeding chamber set to temperature 23±3° C., humidity 55±10% and fed on limited amount of 100 g a day of a solid feed (Labo R Stock, Nihon-Nosan Kogyo K.K.). They were allowed free access to tap water. Instillation: Using a micropipet, each test drug (100 μl) was instilled into the right eye of each animal 8 times at one hour intervals. Into the left eye was instilled a base in the same manner. Observation: anterior segment of the eye was macroscopically observed before instillation and 30 min after 2nd, 4th, 6th and 8th administrations, according to the macroscopic criteria for ocular lesions as shown in Table 1 (Naruyuki Fukui, […] no Rinshou 4, 277-289, 1970). In addition, corneal staining spot was observed before instillation and after 8th administration. [table]

[1] = 0.125%, 30 min after 2nd instillation
[2] = 0.125%, 30 min after 4th instillation
[3] = 0.125%, 30 min after 6th instillation
[4] = 0.125%, 30 min after 8th instillation
[5] = 0.25%, 30 min after 2nd instillation
[6] = 0.25%, 30 min after 4th instillation
[7] = 0.25%, 30 min after 6th instillation
[8] = 0.25%, 30 min after 8th instillation
[9] = 0.5%, 30 min after 2nd instillation
[10] = 0.5%, 30 min after 4th instillation
[11] = 0.5%, 30 min after 6th instillation
[12] = 0.5%, 30 min after 8th instillation
[13] = 1.0%, 30 min after 2nd instillation
[14] = 1.0%, 30 min after 4th instillation
[15] = 1.0%, 30 min after 6th instillation
[16] = 1.0%, 30 min after 8th instillation

## CC(N)[C@H]1CC[C@H](C(=O)Nc2ccncc2)CC1.Cl.Cl.O (single isomer, unassigned; (+)) [Compound A, (+)-trans-4-(1-Aminoethyl)-1-(4-pyridylcarbamoyl)cyclohexane 2HCl 1H2O]
[1]
  Score of ocular lesions: Conjunctiva Bulbar redness: 0.33
  Score of ocular lesions: Conjunctiva Discharge: 0
  Score of ocular lesions: Conjunctiva Nictitating membrane: 0
  Score of ocular lesions: Conjunctiva Palpebral edema: 0
  Score of ocular lesions: Conjunctiva Palpebral redness: 0.17
  Score of ocular lesions: Cornea Area: 0
  Score of ocular lesions: Cornea Degree: 0
  Score of ocular lesions: Iris Values: 0
  Score of ocular lesions: Total score: 0.50
[2]
  Score of ocular lesions: Conjunctiva Bulbar redness: 0.33
  Score of ocular lesions: Conjunctiva Discharge: 0.17
  Score of ocular lesions: Conjunctiva Nictitating membrane: 0
  Score of ocular lesions: Conjunctiva Palpebral edema: 0
  Score of ocular lesions: Conjunctiva Palpebral redness: 0
  Score of ocular lesions: Cornea Area: 0
  Score of ocular lesions: Cornea Degree: 0
  Score of ocular lesions: Iris Values: 0
  Score of ocular lesions: Total score: 0.50
[3]
  Score of ocular lesions: Conjunctiva Bulbar redness: 0.33
  Score of ocular lesions: Conjunctiva Discharge: 0.50
  Score of ocular lesions: Conjunctiva Nictitating membrane: 0
  Score of ocular lesions: Conjunctiva Palpebral edema: 0.33
  Score of ocular lesions: Conjunctiva Palpebral redness: 0.33
  Score of ocular lesions: Cornea Area: 0
  Score of ocular lesions: Cornea Degree: 0
  Score of ocular lesions: Iris Values: 0
  Score of ocular lesions: Total score: 1.99
[4]
  Score of ocular lesions: Conjunctiva Bulbar redness: 0.33
  Score of ocular lesions: Conjunctiva Discharge: 0
  Score of ocular lesions: Conjunctiva Nictitating membrane: 0.17
  Score of ocular lesions: Conjunctiva Palpebral edema: 0.50
  Score of ocular lesions: Conjunctiva Palpebral redness: 0.33
  Score of ocular lesions: Cornea Area: 0
  Score of ocular lesions: Cornea Degree: 0
  Score of ocular lesions: Iris Values: 0
  Score of ocular lesions: Total score: 1.33
0.125%, Before instillation
  Score of ocular lesions: Conjunctiva Bulbar redness: 0
  Score of ocular lesions: Conjunctiva Discharge: 0
  Score of ocular lesions: Conjunctiva Nictitating membrane: 0
  Score of ocular lesions: Conjunctiva Palpebral edema: 0
  Score of ocular lesions: Conjunctiva Palpebral redness: 0
  Score of ocular lesions: Cornea Area: 0
  Score of ocular lesions: Cornea Degree: 0
  Score of ocular lesions: Iris Values: 0
  Score of ocular lesions: Total score: 0
[5]
  Score of ocular lesions: Conjunctiva Bulbar redness: 0.50
  Score of ocular lesions: Conjunctiva Discharge: 0
  Score of ocular lesions: Conjunctiva Nictitating membrane: 0.17
  Score of ocular lesions: Conjunctiva Palpebral edema: 0
  Score of ocular lesions: Conjunctiva Palpebral redness: 0.17
  Score of ocular lesions: Cornea Area: 0
  Score of ocular lesions: Cornea Degree: 0
  Score of ocular lesions: Iris Values: 0
  Score of ocular lesions: Total score: 0.84
[6]
  Score of ocular lesions: Conjunctiva Bulbar redness: 0.50
  Score of ocular lesions: Conjunctiva Discharge: 0.17
  Score of ocular lesions: Conjunctiva Nictitating membrane: 0.50
  Score of ocular lesions: Conjunctiva Palpebral edema: 0
  Score of ocular lesions: Conjunctiva Palpebral redness: 0
  Score of ocular lesions: Cornea Area: 0
  Score of ocular lesions: Cornea Degree: 0
  Score of ocular lesions: Iris Values: 0
  Score of ocular lesions: Total score: 1.00
[7]
  Score of ocular lesions: Conjunctiva Bulbar redness: 0.50
  Score of ocular lesions: Conjunctiva Discharge: 0.50
  Score of ocular lesions: Conjunctiva Nictitating membrane: 0.50
  Score of ocular lesions: Conjunctiva Palpebral edema: 0.17
  Score of ocular lesions: Conjunctiva Palpebral redness: 0.33
  Score of ocular lesions: Cornea Area: 0
  Score of ocular lesions: Cornea Degree: 0
  Score of ocular lesions: Iris Values: 0
  Score of ocular lesions: Total score: 1.50
[8]
  Score of ocular lesions: Conjunctiva Bulbar redness: 0.83
  Score of ocular lesions: Conjunctiva Discharge: 0
  Score of ocular lesions: Conjunctiva Nictitating membrane: 0.50
  Score of ocular lesions: Conjunctiva Palpebral edema: 0
  Score of ocular lesions: Conjunctiva Palpebral redness: 0.33
  Score of ocular lesions: Cornea Area: 0
  Score of ocular lesions: Cornea Degree: 0
  Score of ocular lesions: Iris Values: 0
  Score of ocular lesions: Total score: 1.66
0.25%, Before instillation
  Score of ocular lesions: Conjunctiva Bulbar redness: 0
  Score of ocular lesions: Conjunctiva Discharge: 0
  Score of ocular lesions: Conjunctiva Nictitating membrane: 0
  Score of ocular lesions: Conjunctiva Palpebral edema: 0
  Score of ocular lesions: Conjunctiva Palpebral redness: 0
  Score of ocular lesions: Cornea Area: 0
  Score of ocular lesions: Cornea Degree: 0
  Score of ocular lesions: Iris Values: 0
  Score of ocular lesions: Total score: 0
[9]
  Score of ocular lesions: Conjunctiva Bulbar redness: 0.50
  Score of ocular lesions: Conjunctiva Discharge: 0
  Score of ocular lesions: Conjunctiva Nictitating membrane: 0
  Score of ocular lesions: Conjunctiva Palpebral edema: 0.17
  Score of ocular lesions: Conjunctiva Palpebral redness: 0.17
  Score of ocular lesions: Cornea Area: 0
  Score of ocular lesions: Cornea Degree: 0
  Score of ocular lesions: Iris Values: 0
  Score of ocular lesions: Total score: 0.49
[10]
  Score of ocular lesions: Conjunctiva Bulbar redness: 0.50
  Score of ocular lesions: Conjunctiva Discharge: 0.33
  Score of ocular lesions: Conjunctiva Nictitating membrane: 0.33
  Score of ocular lesions: Conjunctiva Palpebral edema: 0.17
  Score of ocular lesions: Conjunctiva Palpebral redness: 0.17
  Score of ocular lesions: Cornea Area: 0
  Score of ocular lesions: Cornea Degree: 0
  Score of ocular lesions: Iris Values: 0
  Score of ocular lesions: Total score: 1.50
[11]
  Score of ocular lesions: Conjunctiva Bulbar redness: 0.50
  Score of ocular lesions: Conjunctiva Discharge: 2.67
  Score of ocular lesions: Conjunctiva Nictitating membrane: 0.50
  Score of ocular lesions: Conjunctiva Palpebral edema: 0.83
  Score of ocular lesions: Conjunctiva Palpebral redness: 0.67
  Score of ocular lesions: Cornea Area: 0
  Score of ocular lesions: Cornea Degree: 0
  Score of ocular lesions: Iris Values: 0
  Score of ocular lesions: Total score: 5.17
[12]
  Score of ocular lesions: Conjunctiva Bulbar redness: 0.83
  Score of ocular lesions: Conjunctiva Discharge: 1.17
  Score of ocular lesions: Conjunctiva Nictitating membrane: 0.67
  Score of ocular lesions: Conjunctiva Palpebral edema: 0.67
  Score of ocular lesions: Conjunctiva Palpebral redness: 0.67
  Score of ocular lesions: Cornea Area: 0
  Score of ocular lesions: Cornea Degree: 0
  Score of ocular lesions: Iris Values: 0
  Score of ocular lesions: Total score: 4.01
0.5%, Before instillation
  Score of ocular lesions: Conjunctiva Bulbar redness: 0.17
  Score of ocular lesions: Conjunctiva Discharge: 0
  Score of ocular lesions: Conjunctiva Nictitating membrane: 0
  Score of ocular lesions: Conjunctiva Palpebral edema: 0
  Score of ocular lesions: Conjunctiva Palpebral redness: 0
  Score of ocular lesions: Cornea Area: 0
  Score of ocular lesions: Cornea Degree: 0
  Score of ocular lesions: Iris Values: 0
  Score of ocular lesions: Total score: 0.17
[13]
  Score of ocular lesions: Conjunctiva Bulbar redness: 0.50
  Score of ocular lesions: Conjunctiva Discharge: 0.33
  Score of ocular lesions: Conjunctiva Nictitating membrane: 0.17
  Score of ocular lesions: Conjunctiva Palpebral edema: 0.67
  Score of ocular lesions: Conjunctiva Palpebral redness: 0.50
  Score of ocular lesions: Cornea Area: 0
  Score of ocular lesions: Cornea Degree: 0
  Score of ocular lesions: Iris Values: 0
  Score of ocular lesions: Total score: 2.17
[14]
  Score of ocular lesions: Conjunctiva Bulbar redness: 0.50
  Score of ocular lesions: Conjunctiva Discharge: 0.67
  Score of ocular lesions: Conjunctiva Nictitating membrane: 0.50
  Score of ocular lesions: Conjunctiva Palpebral edema: 0.67
  Score of ocular lesions: Conjunctiva Palpebral redness: 0.50
  Score of ocular lesions: Cornea Area: 0
  Score of ocular lesions: Cornea Degree: 0
  Score of ocular lesions: Iris Values: 0
  Score of ocular lesions: Total score: 2.84
[15]
  Score of ocular lesions: Conjunctiva Bulbar redness: 1.17
  Score of ocular lesions: Conjunctiva Discharge: 1.67
  Score of ocular lesions: Conjunctiva Nictitating membrane: 0.67
  Score of ocular lesions: Conjunctiva Palpebral edema: 1.33
  Score of ocular lesions: Conjunctiva Palpebral redness: 0.83
  Score of ocular lesions: Cornea Area: 0
  Score of ocular lesions: Cornea Degree: 0
  Score of ocular lesions: Iris Values: 0
  Score of ocular lesions: Total score: 5.67
[16]
  Score of ocular lesions: Conjunctiva Bulbar redness: 1.50
  Score of ocular lesions: Conjunctiva Discharge: 2.33
  Score of ocular lesions: Conjunctiva Nictitating membrane: 1.67
  Score of ocular lesions: Conjunctiva Palpebral edema: 3.00
  Score of ocular lesions: Conjunctiva Palpebral redness: 2.17
  Score of ocular lesions: Cornea Area: 0
  Score of ocular lesions: Cornea Degree: 0
  Score of ocular lesions: Iris Values: 0
  Score of ocular lesions: Total score: 10.67
1.0%, Before instillation
  Score of ocular lesions: Conjunctiva Bulbar redness: 0
  Score of ocular lesions: Conjunctiva Discharge: 0
  Score of ocular lesions: Conjunctiva Nictitating membrane: 0
  Score of ocular lesions: Conjunctiva Palpebral edema: 0
  Score of ocular lesions: Conjunctiva Palpebral redness: 0.17
  Score of ocular lesions: Cornea Area: 0
  Score of ocular lesions: Cornea Degree: 0
  Score of ocular lesions: Iris Values: 0
  Score of ocular lesions: Total score: 0.17
